One assay has as its system ACC2 mRNA. In words: Expression of ACC2 mRNA in cultured mouse liver cell line Hepa1-6 (quantitative PCR). As to conditions: Hepa1-6 cells, each of the chlorogenic acids (Production Example 4) 5 mM, 24 hours, control at 100. It is filed as cell-based. How it is done:
(§1) A cultured mouse liver cell line (Hepa1-6 cell) was cultured in 10% bovine serum-containing Dulbeco's Modified Eagle's Medium (DMEM) at 37° C., 5% CO2. The cells were seeded in a 6-well plate, and when they reached subconfluency, the medium was replaced by a serum free medium (DMEM, -FBS), followed by culturing for further 12 hours. Subsequently, various samples were added (final concentration: chlorogenic acids (Production Example 1) 2.5×10^−4% (w/v) and each of the chlorogenic acids (Production Example 4) 5 mM), and after 24 hours of culturing, total RNA was prepared according to a standard method. After preparing cDNA by reverse transcription reaction, quantitative PCR was performed by ABI PRISM 7000 Sequence Detection System (Applied Biosystems) using Power SYBR Green Master Mix (Applied Biosystems). Also, the expression level of each gene was corrected using the expression level of 36B4 as an internal standard, and represented as a relative expression level by setting the expression level of control at 100.

The subject of a further assay is PDK4 mRNA. Briefly: Expression of PDK4 mRNA in cultured mouse liver cell line Hepa1-6 (quantitative PCR). It is filed as cell-based. The note with it: Hepa1-6 cells, each of the chlorogenic acids (Production Example 4) 5 mM, 24 hours, control at 100. How it is done:
as §1

The record followed here is patent publication US20120010285A1, “AGENT FOR PROMOTING ENERGY CONSUMPTION” (KAO CORPORATION, priority 2009, published 2012).

As for `O=C(/C=C/c1ccc(O)c(O)c1)O[C@@H]1[C@H](O)C[C@@](O)(C(=O)O)C[C@H]1OC(=O)/C=C/c1ccc(O)c(O)c1` [3,4-dicaffeoylquinic acid], the “expression of ACC2 mRNA” value in the assay on ACC2 mRNA is listed as “significantly reduced”. The “expression of PDK4 mRNA” value in the assay with PDK4 mRNA is on record as “significantly inhibited”.

As for `O=C(/C=C/c1ccc(O)c(O)c1)O[C@@H]1CC(O)(C(=O)O)C[C@@H](OC(=O)/C=C/c2ccc(O)c(O)c2)C1O` (some centres unmarked) [3,5-dicaffeoylquinic acid], the “expression of ACC2 mRNA” value in the assay on ACC2 mRNA was “significantly reduced”.

`O=C(/C=C/c1ccc(O)c(O)c1)O[C@@H]1C[C@](O)(C(=O)O)C[C@@H](O)[C@H]1O` [3-caffeoylquinic acid]: in the assay on ACC2 mRNA, the “expression of ACC2 mRNA” value was “significantly reduced”. The “expression of PDK4 mRNA” value in the assay with PDK4 mRNA was “significantly inhibited”.

As to `O=C(/C=C/c1ccc(O)c(O)c1)O[C@H]1[C@H](O)C[C@](O)(C(=O)O)C[C@H]1OC(=O)/C=C/c1ccc(O)c(O)c1` [4,5-dicaffeoylquinic acid], the “expression of ACC2 mRNA” value in the assay with ACC2 mRNA is recorded as “significantly reduced”.

For `O=C(/C=C/c1ccc(O)c(O)c1)O[C@H]1[C@H](O)C[C@](O)(C(=O)O)C[C@H]1O` [4-caffeoylquinic acid], the “expression of ACC2 mRNA” value with ACC2 mRNA is reported as “significantly reduced”. The “expression of PDK4 mRNA” value in the assay on PDK4 mRNA is “significantly inhibited”.
